# In PubChem BioAssay (NCI):
#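 How tested: cells in 96-well plates exposed to compound for 48 hours at five concentrations. GI50: concentration for 50% inhibition of growth. Definition used: TGI = concentration required for complete inhibition of growth.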
# Tests used:
# Test in all cases: NCI anticancer screen, dose series, 48 h
# HL-60(TB) leukemia = system: HL-60(TB) leukemia
# CCRF-CEM leukemia = system: CCRF-CEM leukemia
# KM12 colon = system: KM12 colon
# A549 NSCLC = system: A549 NSCLC
# HS 578T breast = system: HS 578T breast
# MDA-MB-231 breast = system: MDA-MB-231 breast
# UACC-257 melanoma = system: UACC-257 melanoma
# TK-10 renal = system: TK-10 renal
# HCT-116 colon = system: HCT-116 colon
# BT-549 breast = system: BT-549 breast
# MOLT-4 leukemia = system: MOLT-4 leukemia
# HCC-2998 colon = system: HCC-2998 colon
# SK-MEL-2 melanoma = system: SK-MEL-2 melanoma
# ACHN renal = system: ACHN renal
# SR leukemia = system: SR leukemia
# SF-295 CNS = system: SF-295 CNS
# SNB-75 CNS = system: SNB-75 CNS
# K-562 leukemia = system: K-562 leukemia
# HCT-15 colon = system: HCT-15 colon
# MCF7 breast = system: MCF7 breast
# RPMI-8226 leukemia = system: RPMI-8226 leukemia
# UO-31 renal = system: UO-31 renal
# NCI-H23 lung = system: NCI-H23 lung
# M14 melanoma = system: M14 melanoma
# HT29 colon = system: HT29 colon
# NCI/ADR-RES ovarian = system: NCI/ADR-RES ovarian
# SK-MEL-28 melanoma = system: SK-MEL-28 melanoma
# RXF 393 renal = system: RXF 393 renal
# SF-268 CNS = system: SF-268 CNS
# HOP-62 NSCLC = system: HOP-62 NSCLC
# CAKI-1 renal = system: CAKI-1 renal
# SK-OV-3 ovarian = system: SK-OV-3 ovarian
# SNB-19 CNS = system: SNB-19 CNS
# UACC-62 melanoma = system: UACC-62 melanoma
# U251 CNS = system: U251 CNS
# SW-620 colon = system: SW-620 colon
# MDA-MB-435 = system: MDA-MB-435
# PC-3 prostate = system: PC-3 prostate
# EKVX NSCLC = system: EKVX NSCLC
# OVCAR-5 ovarian = system: OVCAR-5 ovarian
# NCI-H226 lung = system: NCI-H226 lung
# NCI-H522 lung = system: NCI-H522 lung
# IGROV1 ovarian = system: IGROV1 ovarian
# HOP-92 NSCLC = system: HOP-92 NSCLC
# SK-MEL-5 melanoma = system: SK-MEL-5 melanoma
# SF-539 CNS = system: SF-539 CNS
# DU-145 prostate = system: DU-145 prostate
# 786-0 renal = system: 786-0 renal
# NCI-H460 lung = system: NCI-H460 lung
# OVCAR-4 ovarian = system: OVCAR-4 ovarian
# OVCAR-8 ovarian = system: OVCAR-8 ovarian
# A498 renal = system: A498 renal
# T-47D breast = system: T-47D breast
# MALME-3M melanoma = system: MALME-3M melanoma
# SN12C renal = system: SN12C renal
# COLO 205 colon = system: COLO 205 colon
smiles,measurement,setting,value
O=C(CCC(=O)N1CCOCC1)OCCCCCCSc1ccc([N+](=O)[O-])c2nonc12,GI50,HL-60(TB) leukemia,313 nM
same,TGI,HL-60(TB) leukemia,1620 nM
same,GI50,CCRF-CEM leukemia,284 nM
same,TGI,CCRF-CEM leukemia,3850 nM
same,GI50,KM12 colon,2700 nM
same,TGI,KM12 colon,7770 nM
same,GI50,A549 NSCLC,2900 nM
same,TGI,A549 NSCLC,12000 nM
same,GI50,HS 578T breast,1690 nM
same,TGI,HS 578T breast,5990 nM
same,GI50,MDA-MB-231 breast,1390 nM
same,TGI,MDA-MB-231 breast,3080 nM
same,GI50,UACC-257 melanoma,1630 nM
same,TGI,UACC-257 melanoma,3660 nM
same,GI50,TK-10 renal,4100 nM
same,TGI,TK-10 renal,13300 nM
same,GI50,HCT-116 colon,410 nM
same,TGI,HCT-116 colon,1670 nM
same,GI50,BT-549 breast,939 nM
same,TGI,BT-549 breast,2170 nM
same,GI50,MOLT-4 leukemia,410 nM
same,TGI,MOLT-4 leukemia,3490 nM
same,GI50,HCC-2998 colon,1680 nM
same,TGI,HCC-2998 colon,3160 nM
same,GI50,SK-MEL-2 melanoma,2480 nM
same,TGI,SK-MEL-2 melanoma,6680 nM
same,GI50,ACHN renal,472 nM
same,TGI,ACHN renal,1680 nM
same,GI50,SR leukemia,239 nM
same,TGI,SR leukemia,2160 nM
same,GI50,SF-295 CNS,2460 nM
same,TGI,SF-295 CNS,7210 nM
same,GI50,SNB-75 CNS,490 nM
same,TGI,SNB-75 CNS,17000 nM
same,GI50,K-562 leukemia,259 nM
same,TGI,K-562 leukemia,> 100000 nM
same,GI50,HCT-15 colon,267 nM
same,TGI,HCT-15 colon,1120 nM
same,GI50,MCF7 breast,334 nM
same,TGI,MCF7 breast,1920 nM
same,GI50,RPMI-8226 leukemia,401 nM
same,TGI,RPMI-8226 leukemia,3350 nM
same,GI50,UO-31 renal,418 nM
same,TGI,UO-31 renal,2260 nM
same,GI50,NCI-H23 lung,1390 nM
same,TGI,NCI-H23 lung,3000 nM
same,GI50,M14 melanoma,1320 nM
same,TGI,M14 melanoma,2890 nM
same,GI50,HT29 colon,1010 nM
same,TGI,HT29 colon,4270 nM
same,GI50,NCI/ADR-RES ovarian,759 nM
same,TGI,NCI/ADR-RES ovarian,4440 nM
same,GI50,SK-MEL-28 melanoma,1620 nM
same,TGI,SK-MEL-28 melanoma,3110 nM
same,GI50,RXF 393 renal,574 nM
same,TGI,RXF 393 renal,1960 nM
same,GI50,SF-268 CNS,1650 nM
same,TGI,SF-268 CNS,5250 nM
same,GI50,HOP-62 NSCLC,1740 nM
same,TGI,HOP-62 NSCLC,4450 nM
same,GI50,CAKI-1 renal,1520 nM
same,TGI,CAKI-1 renal,3950 nM
same,GI50,SK-OV-3 ovarian,3850 nM
same,TGI,SK-OV-3 ovarian,16900 nM
same,GI50,SNB-19 CNS,1610 nM
same,TGI,SNB-19 CNS,4710 nM
same,GI50,UACC-62 melanoma,1010 nM
same,TGI,UACC-62 melanoma,2360 nM
same,GI50,U251 CNS,640 nM
same,TGI,U251 CNS,2700 nM
same,GI50,SW-620 colon,479 nM
same,TGI,SW-620 colon,2280 nM
same,GI50,MDA-MB-435,1160 nM
same,TGI,MDA-MB-435,2500 nM
same,GI50,PC-3 prostate,1600 nM
same,TGI,PC-3 prostate,4190 nM
same,GI50,EKVX NSCLC,1550 nM
same,TGI,EKVX NSCLC,3260 nM
same,GI50,OVCAR-5 ovarian,1580 nM
same,TGI,OVCAR-5 ovarian,3250 nM
same,GI50,NCI-H226 lung,1440 nM
same,TGI,NCI-H226 lung,3810 nM
same,GI50,NCI-H522 lung,853 nM
same,TGI,NCI-H522 lung,3930 nM
same,GI50,IGROV1 ovarian,1010 nM
same,TGI,IGROV1 ovarian,2240 nM
same,GI50,HOP-92 NSCLC,1240 nM
same,TGI,HOP-92 NSCLC,2830 nM
same,GI50,SK-MEL-5 melanoma,1700 nM
same,TGI,SK-MEL-5 melanoma,3290 nM
same,GI50,SF-539 CNS,666 nM
same,TGI,SF-539 CNS,1990 nM
same,GI50,DU-145 prostate,1400 nM
same,TGI,DU-145 prostate,2710 nM
same,GI50,786-0 renal,1400 nM
same,TGI,786-0 renal,4150 nM
same,GI50,NCI-H460 lung,1700 nM
same,TGI,NCI-H460 lung,3820 nM
same,GI50,OVCAR-4 ovarian,1820 nM
same,TGI,OVCAR-4 ovarian,3800 nM
same,GI50,OVCAR-8 ovarian,827 nM
same,TGI,OVCAR-8 ovarian,9250 nM
same,GI50,A498 renal,1850 nM
same,TGI,A498 renal,4260 nM
same,GI50,T-47D breast,2030 nM
same,TGI,T-47D breast,5110 nM
same,GI50,MALME-3M melanoma,1150 nM
same,TGI,MALME-3M melanoma,2510 nM
same,GI50,SN12C renal,1010 nM
same,TGI,SN12C renal,2300 nM
same,GI50,COLO 205 colon,1890 nM
same,TGI,COLO 205 colon,4590 nM
